Measurements taken from patent publication EP4650362A1, “NEUROPROTECTIVE PSD-95 POLYPEPTIDE INHIBITOR AND USE THEREOF” (Beijing Tuo Jie Biopharmaceutical Co. Ltd., priority 2023, dated 2024).
Non-standard residues stand in square brackets, D forms with d. Residues, ends and D or L forms follow the SMILES beside them. No end group written: not given here. Tle = CC(C)(C)[C@H](N)C(=O)O; Dab = NCC[C@H](N)C(=O)O; Aib = CC(C)(N)C(=O)O

System: rat red blood cell suspensions
Experiment: hemolysis risk test in rat whole blood
Type: cell-based
Settings: for Hemolysis rate (%): Rat, 37 °C 1 h; for hemolysis rates: rat whole blood, concentration range of 1 to 50 µM
From the text: Hemolysis refers to the phenomenon in which the membrane of erythrocytes is destroyed, along with increased transparency and a dark red appearance. Certain pharmaceutical ingredients, excipients, etc. may contain hemolytic components, which may cause hemolysis in the human body and cause adverse reactions such as local swelling and blood circulation dysfunction. On the basis of the principle that the hemoglobin released from lysed red blood cells has absorption in the visible light wave band, test compound solutions were added to rat red blood cell suspensions, and after incubation, the degrees of hemolysis were determined using a microplate reader.
This test example assessed whether a polypeptide compound causes hemolytic reactions in rat, rabbit, and human whole blood.
Preparation of red blood cell suspension: 100 µL of fresh whole blood was collected, and 900 µL of 1× PBS solution was then added. The mixture was shaken on a plate shaker at 30 rpm for 5 min and then centrifuged at 1000 g for 5 min, and the supernatant was discarded. The above washing step was repeated until the supernatant no longer appeared red. The suspension was set aside for later use.
Preparation of test polypeptide solutions: An appropriate amount of 1× PBS solution was added to a powdered polypeptide, and the polypeptide was dissolved to form a standard stock solution. […] Meanwhile, blank 1× PBS was used as a negative control, and a 1× PBS solution containing 0.1% Triton X-100 was used as a positive control.
Incubation: A test solution (500 µL) was added to the red blood cell suspension, and then the mixture was well shaken on a plate shaker at 30 rpm for 5 min, incubated at 37 °C for 1 h, and centrifuged at 1000 g for 5 min.
100 µL of the supernatant was transferred to a single well of a microplate. The absorbance at 540 nm was measured using a SpectraMax M5 microplate reader, and data analysis was performed using GraphPad Prism 9. The hemolysis rate (%) was calculated using the formula: (test sample absorbance - negative control absorbance) / (positive control absorbance - negative control absorbance) × 100%. A rate of less than 5% indicates the absence of hemolysis, while a rate of greater than 5% indicates the presence of hemolysis. Table 3. Testing of the hemolysis risk of the polypeptide compound

Molecule: CC(C)[C@H](NC(=O)[C@H](CC(=O)O)NC(=O)[C@@H](NC(=O)[C@@H](NC(=O)[C@@H](NC(=O)[C@@H](NC(=O)[C@H](CCN)NC(=O)C(C)(C)NC(=O)CNC(=O)[C@@H](CCCNC(=N)N)NC(=O)[C@@H](CCCNC(=N)N)NC(=O)[C@@H](CCCNC(=N)N)NC(=O)[C@@H](CCC(N)=O)NC(=O)[C@@H](CCCNC(=N)N)NC(=O)[C@@H](CCCNC(=N)N)NC(=O)[C@@H](CCCCN)NC(=O)[C@@H](CCCCN)NC(=O)[C@@H](CCCNC(=N)N)NC(=O)CNC(=O)[C@H](N)Cc1ccc(O)cc1)[C@@H](C)O)C(C)(C)C)C(C)(C)C)[C@@H](C)O)C(=O)O [Polypeptide compound 14, y-G-r-k-k-r-r-q-r-r-r-G-Aib-Dab-T-Tle-Tle-T-D-V] (H-[dY]G[dR][dK][dK][dR][dR][dQ][dR][dR][dR]G[Aib][Dab]T[Tle][Tle]TDV-OH)
- Hemolysis rate (%) (1.0 µM): 0.11%
- Hemolysis rate (%) (2.5 µM): 0.17%
- Hemolysis rate (%) (5.0 µM): -0.11%
- Hemolysis rate (%) (10 µM): 0.00%
- Hemolysis rate (%) (25 µM): -0.16%
- Hemolysis rate (%) (50 µM): 0.12%
- hemolysis rates: less than 5%

Molecule: YGRKKRRQRRRKLSSIESDV [NA-1, YGRKKRRQR RRKLSSIESDV, reference compound]
- Hemolysis rate (%) (1.0 µM): -0.12%
- Hemolysis rate (%) (2.5 µM): 0.03%
- Hemolysis rate (%) (5.0 µM): 0.50%
- Hemolysis rate (%) (10 µM): 0.48%
- Hemolysis rate (%) (25 µM): 0.34%
- Hemolysis rate (%) (50 µM): -0.46%
- hemolysis rates: less than 5%
